# Laboratory results: paper PMC5643462, “Encrypted Antimicrobial Peptides from Plant Proteins” (Scientific Reports, 2017)
# Read-outs that look alike come from different tables or passages of the source. No end group written: not given here.
# Legend:
# human red blood cells = experiment: Cytotoxicity: hemolysis of human red blood cells; format: cell-based
# Description: The cytotoxicity of the selected IAPS was performed using human red blood cells in strict accordance with relevant guidelines and regulations (Ethical committee – UnB # 1.939.989). Different concentrations of IAPs (128 µM–0.5 µM) were incubated with a final concentration of 2.5 × 10^5 red blood cells.mL^−1. Briefly, 100 µL of red blood cells was incubated with 100 µL of different concentrations of each IAP, prepared in PBS, for 30 minutes at 37 °C, with constant shaking at 120 rpm. PBS and Triton X-100 0.1% (v/v) were used as negative and positive controls, respectively. After incubation, the solution was centrifuged at 900 × g for five minutes followed by transferring 50 µL of the supernatant to flat-bottom polystyrene 96-well micro plates containing 50 µL of PBS. Microplate reading was performed at a BioTek Multireader, using a wavelength of 540 nm. All tests were performed in 3 biological replicates, composed of 3 biological repetitions each. The obtained data was subtracted by the negative control and relative to the positive control, defined as 100% lysis.
# [1] = Far-UV circular dichroism, helix percentage in buffer and with LUVs; format: physicochemical; conditions: room temperature, from [θ]222 nm, * = β-sheet structure; for %Hel 2:1 DMPC/DMPG: 40 μM peptide + 2 mM 2:1 DMPC:DMPG LUVs (50 fold excess); for %Hel 2:1 DMPC/DMPG / %Hel DMPC: pH 7.4 buffer; for %Hel DMPC: 40 μM peptide + 2 mM DMPC LUVs (50 fold excess); for %Hel buffer: 40 μM peptide in 20 mM sodium phosphate, 150 mM NaCl, pH 7.4
# Description: DMPC and 2:1 DMPC:DMPG (w/w) were dissolved in chloroform and methanol (3:1 v/v) at 10 mg/mL, dried using a rotary evaporator and left 3 hours under high vacuum in a freeze dryer. Phospholipids were then dissolved in 20 mM Sodium phosphate – NaOH, 150 mM NaCl, pH 7.4 and hand-shaken until the formation of a cloudy solution, which was passed 19 times through a 100 nm polycarbonate membrane at 30 °C for the formation of large unilamelar vesicles (LUVs) using a mini-extruder (Avanti Polar Lipids). Phospholipid concentration was estimated according to the ammonium ferrothiocyanate method.
# Experiments were conducted on a Jasco-J815 spectropolarimeter (Jasco International Co.). Spectra were acquired at room temperature from 200 to 260 nm as an average of 4 readings using a 0.1 cm path length cell, data pitch of 0.2 nm and a response time of 0.5 s. Data Scans of buffer and 2 mM DMPC and 2:1 DMPC:DMPG LUVs solutions were acquired and subtracted from each peptide data. Peptides were scanned at a concentration of 40 μM in buffer and then 50 fold excess of DMPC and 2:1 DMPC:DMPG LUVs were added, resulting in a molar ratio of 0.02 peptide/phospholipid. The spectra were converted to mean residue ellipticity and readings at [θ]222 nm were used to estimate helix percentages.
Substance,Hemolytic activity (% ± SD) at 1 µM (human red blood cells) [%],Hemolytic activity (% ± SD) at 2 µM (human red blood cells) [%],Hemolytic activity (% ± SD) at 4 µM (human red blood cells) [%],Hemolytic activity (% ± SD) at 8 µM (human red blood cells) [%],Hemolytic activity (% ± SD) at 16 µM (human red blood cells) [%],Hemolytic activity (% ± SD) at 32 µM (human red blood cells) [%],Hemolytic activity (% ± SD) at 64 µM (human red blood cells),Hemolytic activity (% ± SD) at 128 µM (human red blood cells) [%],Hemolytic activity of human red blood cells (%) SC50 (human red blood cells) [µM],"Hemolytic activity of human red blood cells (%) SC50 (human red blood cells; SC50 = IAP concentration that at least 50% of red blood cells remain intact, 128 µM–0.5 µM tested, PBS, 30 minutes, 37 °C, absorbance 540 nm) [µM]",%Hel 2:1 DMPC/DMPG [1] [%],%Hel DMPC [1] [%],%Hel buffer [1] [%]
GSLHGFMYKYLKNMVLTLF-NH2 [At01],0.00 ± 0.00,0.00 ± 0.00,0.00 ± 0.00,0.00 ± 0.00,0.19 ± 0.01,1.05 ± 0.22,5.04 ± 2.39%,14.6 ± 2.14,>128,,,,
IKLRNVLKYLFRIDVIKEDIL-NH2 [Tc03],0.03 ± 0.00,0.04 ± 0.03,0.00 ± 0.00,0.17 ± 0.04,0.09 ± 0.01,0.67 ± 0.30,2.29 ± 1.18%,7.89 ± 1.44,>128,,,,
KVLSKVHTLLKAVLAL-NH2 [At02],0.04 ± 0.00,0.03 ± 0.00,0.02 ± 0.00,0.00 ± 0.00,0.30 ± 0.16,2.41 ± 0.98,10.28 ± 4.3%,23.10 ± 3.41,>128,,,,
LHRLVKLVAALLRGYASKVDTH [Tc08],0.11 ± 0.04,0.11 ± 0.09,0.27 ± 0.10,0.30 ± 0.05,2.00 ± 1.13,15.47 ± 1.58,28.81 ± 2.6 7%,,,>128,,,
"LIKVVNHVQYNVTLHWHGIR [Tc07, IAP from Theobroma cacao, Laccase 17]",,,,,,,,,,,19.9,17.1,23.5
"LLDKLKRTLLSIEAVLI [Tc11, IAP from Theobroma cacao, LRR and NB-ARC domains-containing disease resistance protein]",,,,,,,,,,,56.7,57.0,45.8
"RVLKDVESALRESVANWKIVIG [Tc04, IAP from Theobroma cacao, Purple acid phosphatase 3]",,,,,,,,,,,36.3,15.8,14.3
"VALRLAKEVIKVQQGW [Tc01, IAP from Theobroma cacao, Embryo defective 1381 isoform 2]",,,,,,,,,,,64.8,4.5,5.0
